Measured values taken from patent US11878966B2, “Substituted 4-benzyl and 4-benzoyl piperidine derivates” (89BIO LTD, priority 2015, dated 2024).

Molecular target: T1, recombinant human baculovirus-expressed GST-tagged FASN (Homo sapiens, UniProt P49327)
T1 construct: GST; host or cells: baculovirus expression system (insect cells implied)
Experiment: FASN enzyme activity assay: fluorescence-based detection of CoA with CPM
Type: biochemical
Details: 5 nM FASN, 150 μM NADPH, 10 μM acetyl-CoA, 25 μM malonyl-CoA, 90 minutes incubation
Method in brief: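 IC50 values were fitted (variable-slope sigmoid) to percent inhibition from CPM fluorescence (390/530 nm) reporting free CoA after a 30 min labelling step. The reaction ran 90 min after malonyl-CoA (25 μM) addition, with 10 μM acetyl-CoA, 150 μM NADPH, 5 nM recombinant GST-FASN, 50 mM HEPES pH 7.5 and 0.5% DMSO.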

T1 sequence (P49327 whole entry): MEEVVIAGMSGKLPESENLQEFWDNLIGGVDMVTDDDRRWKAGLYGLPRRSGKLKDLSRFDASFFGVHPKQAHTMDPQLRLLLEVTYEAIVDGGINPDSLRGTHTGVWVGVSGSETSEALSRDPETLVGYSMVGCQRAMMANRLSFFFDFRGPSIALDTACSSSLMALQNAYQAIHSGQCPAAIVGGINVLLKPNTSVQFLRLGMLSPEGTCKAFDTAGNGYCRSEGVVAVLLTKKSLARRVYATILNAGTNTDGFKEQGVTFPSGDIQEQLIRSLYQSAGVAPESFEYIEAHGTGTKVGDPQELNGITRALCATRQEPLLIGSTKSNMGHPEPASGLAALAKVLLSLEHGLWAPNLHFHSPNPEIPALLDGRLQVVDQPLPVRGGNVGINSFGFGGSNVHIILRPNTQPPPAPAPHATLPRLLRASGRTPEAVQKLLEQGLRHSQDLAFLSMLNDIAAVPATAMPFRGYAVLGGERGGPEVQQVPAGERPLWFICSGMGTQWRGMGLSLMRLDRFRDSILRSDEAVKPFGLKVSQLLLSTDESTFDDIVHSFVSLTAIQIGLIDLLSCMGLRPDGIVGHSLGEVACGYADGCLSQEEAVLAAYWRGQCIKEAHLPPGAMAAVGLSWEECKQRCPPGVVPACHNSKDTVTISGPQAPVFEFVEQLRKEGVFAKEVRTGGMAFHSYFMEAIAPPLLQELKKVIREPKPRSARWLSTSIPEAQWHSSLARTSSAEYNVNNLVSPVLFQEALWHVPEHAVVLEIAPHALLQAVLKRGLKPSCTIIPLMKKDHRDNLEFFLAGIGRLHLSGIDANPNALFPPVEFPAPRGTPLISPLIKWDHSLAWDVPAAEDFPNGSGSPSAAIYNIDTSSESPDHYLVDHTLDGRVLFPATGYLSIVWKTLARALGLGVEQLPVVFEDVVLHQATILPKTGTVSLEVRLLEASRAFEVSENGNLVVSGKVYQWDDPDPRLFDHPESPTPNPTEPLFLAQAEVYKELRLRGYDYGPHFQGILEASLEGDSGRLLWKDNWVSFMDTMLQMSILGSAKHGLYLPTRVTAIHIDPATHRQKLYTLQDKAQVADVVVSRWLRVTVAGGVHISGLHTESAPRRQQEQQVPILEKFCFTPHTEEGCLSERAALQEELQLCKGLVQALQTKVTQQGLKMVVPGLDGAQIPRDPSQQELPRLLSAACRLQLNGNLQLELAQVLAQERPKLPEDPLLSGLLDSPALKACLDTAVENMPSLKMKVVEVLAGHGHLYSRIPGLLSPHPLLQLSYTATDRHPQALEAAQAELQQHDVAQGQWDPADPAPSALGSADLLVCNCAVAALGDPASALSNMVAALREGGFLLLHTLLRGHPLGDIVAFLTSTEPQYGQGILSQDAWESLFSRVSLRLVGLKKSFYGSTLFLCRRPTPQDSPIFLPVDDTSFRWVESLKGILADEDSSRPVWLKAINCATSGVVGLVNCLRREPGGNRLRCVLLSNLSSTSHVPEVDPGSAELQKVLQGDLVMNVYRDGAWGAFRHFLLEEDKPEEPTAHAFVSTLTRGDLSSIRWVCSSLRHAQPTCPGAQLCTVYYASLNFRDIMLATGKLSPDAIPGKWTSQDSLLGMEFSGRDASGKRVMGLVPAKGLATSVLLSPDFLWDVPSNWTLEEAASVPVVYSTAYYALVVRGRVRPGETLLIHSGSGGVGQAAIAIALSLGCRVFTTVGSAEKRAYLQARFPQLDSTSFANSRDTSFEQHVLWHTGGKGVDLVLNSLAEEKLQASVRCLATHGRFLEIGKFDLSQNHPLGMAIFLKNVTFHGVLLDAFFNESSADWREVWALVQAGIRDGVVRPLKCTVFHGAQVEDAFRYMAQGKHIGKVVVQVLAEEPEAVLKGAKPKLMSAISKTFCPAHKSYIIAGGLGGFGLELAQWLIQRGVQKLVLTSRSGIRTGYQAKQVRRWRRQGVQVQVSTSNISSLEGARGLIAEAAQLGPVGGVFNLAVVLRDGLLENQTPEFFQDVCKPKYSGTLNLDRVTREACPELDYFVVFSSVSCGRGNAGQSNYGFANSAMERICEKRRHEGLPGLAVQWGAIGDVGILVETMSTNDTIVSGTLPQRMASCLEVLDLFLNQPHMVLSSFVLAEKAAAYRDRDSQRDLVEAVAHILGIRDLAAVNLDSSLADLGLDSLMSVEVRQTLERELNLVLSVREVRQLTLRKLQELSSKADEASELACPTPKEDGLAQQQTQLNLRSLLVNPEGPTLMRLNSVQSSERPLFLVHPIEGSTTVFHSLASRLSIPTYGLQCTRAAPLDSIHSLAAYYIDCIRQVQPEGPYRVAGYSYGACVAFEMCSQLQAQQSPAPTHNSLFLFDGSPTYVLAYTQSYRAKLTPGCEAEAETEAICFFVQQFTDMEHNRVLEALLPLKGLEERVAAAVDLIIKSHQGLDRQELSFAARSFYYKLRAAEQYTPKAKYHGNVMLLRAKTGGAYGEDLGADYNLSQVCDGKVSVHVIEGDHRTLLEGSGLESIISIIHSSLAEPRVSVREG

IC50 [µM] | Structure (SMILES)
1 to 10 | O=C(C1CC1)N1CC=C(Cc2ccc(-c3ccc4occc4c3)cc2)CC1 [Example 180, (4-(4-(benzofuran-5-yl)benzyl)-5,6-dihydropyridin-1(2H)-yl)(cyclopropyl)methanone]
0.001 to 0.099 | Cc1c(-c2ccc(CC3(F)CCN(C(=O)[C@H]4CCCO4)CC3)cc2)cnc2ccccc12 [Example 181, (R)-(4-fluoro-4-(4-(4-methylquinolin-3-yl)benzyl)piperidin-1-yl)(tetrahydrofuran-2-yl)methanone]
0.001 to 0.099 | Cc1c(-c2ccc(CC3=CCN(C(=O)[C@H]4CCCO4)CC3)cc2)cnc2ccccc12 [Example 182, (R)-(4-(4-(4-methylquinolin-3-yl)benzyl)-5,6-dihydropyridin-1(2H)-yl)(tetrahydrofuran-2-yl)methanone]
0.001 to 0.099 | Cc1c(-c2ccc(CC3(F)CCN(C(=O)C4CC4)CC3)cc2)ccc2cccnc12 [Example 183, Cyclopropyl(4-fluoro-4-(4-(8-methylquinolin-7-yl)benzyl)piperidin-1-yl)methanone]
0.1 to 0.999 | Cc1c(-c2ccc(CC3=CCN(C(=O)C4CC4)CC3)cc2)ccc2cccnc12 [Example 184, Cyclopropyl(4-(4-(8-methylquinolin-7-yl)benzyl)-3,6-dihydropyridin-1(2H)-yl)methanone]
0.001 to 0.099 | CCC(=O)N1CCC(F)(Cc2ccc(-c3ccc4cccnc4c3C)cc2)CC1 [Example 185, 1-(4-fluoro-4-(4-(8-methylquinolin-7-yl)benzyl)piperidin-1-yl)propan-1-one]
0.001 to 0.099 | CCC(=O)N1CC=C(Cc2ccc(-c3ccc4cccnc4c3C)cc2)CC1 [Example 186, 1-(4-(4-(8-methylquinolin-7-yl)benzyl)-3,6-dihydropyridin-1(2H)-yl)propan-1-one]
0.001 to 0.099 | O=C([C@H]1CCCO1)N1CCC(F)(Cc2ccc(-c3ccc4cccnc4c3)cc2)CC1 [Example 187, (R)-(4-fluoro-4-(4-(quinolin-7-yl)benzyl)piperidin-1-yl)(tetrahydrofuran-2-yl)methanone]
0.001 to 0.099 | Cc1c(-c2ccc(CC3(F)CCN(C(=O)C4CC4)CC3)cc2)cnc2ccccc12 [Example 191, Cyclopropyl(4-fluoro-4-(4-(4-methylquinolin-3-yl)benzyl)piperidin-1-yl)methanone]
0.1 to 0.999 | Cc1c(-c2ccc(CC3=CCN(C(=O)C4CC4)CC3)cc2)cnc2ccccc12 [Example 192, Cyclopropyl(4-(4-(4-methylquinolin-3-yl)benzyl)-5,6-dihydropyridin-1(2H)-yl)methanone]
0.001 to 0.099 | CCC(=O)N1CCC(F)(Cc2ccc(-c3cnc4ccccc4c3Cl)cc2)CC1 [Example 193, 1-(4-(4-(4-chloroquinolin-3-yl)benzyl)-4-fluoropiperidin-1-yl)propan-1-one]
0.1 to 0.999 | CCC(=O)N1CC=C(Cc2ccc(-c3cnc4ccccc4c3Cl)cc2)CC1 [Example 194, 1-(4-(4-(4-Chloroquinolin-3-yl)benzyl)-3,6-dihydropyridin-1(2H)-yl)propan-1-one]
0.001 to 0.099 | CCC(=O)N1CCC(F)(Cc2ccc(-c3cnc4ccccc4c3C)cc2)CC1 [Example 195, 1-(4-Fluoro-4-(4-(4-methylquinolin-3-yl)benzyl)piperidin-1-yl)propan-1-one]
0.001 to 0.099 | CCC(=O)N1CC=C(Cc2ccc(-c3cnc4ccccc4c3C)cc2)CC1 [Example 196, 1-(4-(4-(4-Methylquinolin-3-yl)benzyl)-5,6-dihydropyridin-1(2H)-yl)propan-1-one]
0.001 to 0.099 | O=C(C1CC1)N1CCC(F)(Cc2ccc(-c3cnc4ccccc4c3Cl)cc2)CC1 [Example 197, (4-(4-(4-Chloroquinolin-3-yl)benzyl)-4-fluoropiperidin-1-yl)(cyclopropyl)-methanone]
0.1 to 0.999 | O=C(C1CC1)N1CC=C(Cc2ccc(-c3cnc4ccccc4c3Cl)cc2)CC1 [Example 198, (4-(4-(4-Chloroquinolin-3-yl)benzyl)-3,6-dihydropyridin-1(2H)-yl)(cyclopropyl)methanone]
0.001 to 0.099 | Cc1c(-c2ccc(CC3(F)CCN(C(=O)[C@H]4CCCO4)CC3)cc2)ccc2cccnc12 [Example 199, (R)-(4-fluoro-4-(4-(8-methylquinolin-7-yl)benzyl)piperidin-1-yl)(tetrahydrofuran-2-yl)methanone]
0.001 to 0.099 | Cc1c(-c2ccc(CC3=CCN(C(=O)[C@H]4CCCO4)CC3)cc2)ccc2cccnc12 [Example 200, (R)-(4-(4-(8-methylquinolin-7-yl)benzyl)-3,6-dihydropyridin-1(2H)-yl)(tetrahydrofuran-2-yl)methanone]
0.001 to 0.099 | O=C([C@H]1CCCO1)N1CCC(F)(Cc2ccc(-c3cnc4ccccc4c3Cl)cc2)CC1 [Example 201, (R)-(4-(4-(4-chloroquinolin-3-yl)benzyl)-4-fluoropiperidin-1-yl)(tetrahydrofuran-2-yl)methanone]
0.001 to 0.099 | O=C([C@H]1CCCO1)N1CC=C(Cc2ccc(-c3cnc4ccccc4c3Cl)cc2)CC1 [Example 202, (R)-(4-(4-(4-chloroquinolin-3-yl)benzyl)-3,6-dihydropyridin-1(2H)-yl)(tetrahydrofuran-2-yl)methanone]

IC50 [µM] | Structure (SMILES)
0.001 to 0.099 | CC(C)(c1ccc(-c2cnc3ccccc3c2)cc1)C1CCN(C(=O)[C@H]2CCCO2)CC1 [Example 203]
0.1 to 0.999 | CC(C)(c1ccc(-c2cnc3ccccc3c2)cc1)C1CCN(C(=O)C2CC2)CC1 [Example 204, Cyclopropyl(4-(2-(4-(quinolin-3-yl)phenyl)propan-2-yl)piperidin-1-yl)methanone]
0.1 to 0.999 | CCC(=O)N1CCC(C(C)(C)c2ccc(-c3cnc4ccccc4c3)cc2)CC1 [Example 205, 1-(4-(2-(4-(quinolin-3-yl)phenyl)propan-2-yl)piperidin-1-yl)propan-1-one]
0.1 to 0.999 | CCOC(C)(c1ccc(-c2cnc3ccccc3c2)cc1)C1CCN(C(=O)CC)CC1 (stereo not shown) [Example 206, 1-{4-[1-Ethoxy-1-(4-quinolin-3-yl-phenyl)-ethyl]-piperidin-1-yl}-propan-1-one]
0.1 to 0.999 | CCOC(C)(c1ccc(-c2cnc3ccccc3c2)cc1)C1CCN(C(=O)C2CC2)CC1 (stereo not shown) [Example 207, Cyclopropyl-{4-[1-ethoxy-1-(4-quinolin-3-yl-phenyl)-ethyl]-piperidin-1-yl}-methanone]
0.1 to 0.999 | CCC(=O)N1CCC(C(C)(OC)c2ccc(-c3cnc4ccccc4c3)cc2)CC1 (stereo not shown) [Example 208, 1-{4-[1-Methoxy-1-(4-quinolin-3-yl-phenyl)-ethyl]-piperidin-1-yl}-propan-1-one]
0.001 to 0.099 | COC(C)(c1ccc(-c2cnc3ccccc3c2)cc1)C1CCN(C(=O)C2CC2)CC1 (stereo not shown) [Example 209, Cyclopropyl-{4-[1-methoxy-1-(4-quinolin-3-yl-phenyl)-ethyl]-piperidin-1-yl}-methanone]
1 to 10 | CCC(=O)N1CCC(C(CC)(OC)c2ccc(-c3cnc4ccccc4c3)cc2)CC1 (stereo not shown) [Example 210, 1-{4-[1-Methoxy-1-(4-quinolin-3-yl-phenyl)-propyl]-piperidin-1-yl}-propan-1-one]
1 to 10 | CCC(OC)(c1ccc(-c2cnc3ccccc3c2)cc1)C1CCN(C(=O)C2CC2)CC1 (stereo not shown) [Example 211, Cyclopropyl-{4-[1-methoxy-1-(4-quinolin-3-yl-phenyl)-propyl]-piperidin-1-yl}-methanone]
0.001 to 0.099 | CCC(=O)N1CCC(C(C)(OC)c2ccc(-c3ccc4cccnc4c3)cc2)CC1 (stereo not shown) [Example 212, 1-{4-[1-Methoxy-1-(4-quinolin-7-yl-phenyl)-ethyl]-piperidin-1-yl}-propan-1-one]
0.1 to 0.999 | COC(C)(c1ccc(-c2ccc3cccnc3c2)cc1)C1CCN(C(=O)C2CC2)CC1 (stereo not shown) [Example 213, Cyclopropyl-{4-[1-methoxy-1-(4-quinolin-7-yl-phenyl)-ethyl]-piperidin-1-yl}-methanone]
0.1 to 0.999 | CCOC(C)(c1ccc(-c2ccc3cccnc3c2)cc1)C1CCN(C(=O)CC)CC1 (stereo not shown) [Example 214, 1-{4-[1-Ethoxy-1-(4-quinolin-7-yl-phenyl)-ethyl]-piperidin-1-yl}-propan-1-one]
0.1 to 0.999 | CCOC(C)(c1ccc(-c2ccc3cccnc3c2)cc1)C1CCN(C(=O)C2CC2)CC1 (stereo not shown) [Example 215, Cyclopropyl-{4-[1-ethoxy-1-(4-quinolin-7-yl-phenyl)-ethyl]-piperidin-1-yl}-methanone]
1 to 10 | CCC(=O)N1CCC(C(CC)(OC)c2ccc(-c3ccc4cccnc4c3)cc2)CC1 (stereo not shown) [Example 216, 1-{4-[1-Methoxy-1-(4-quinolin-7-yl-phenyl)-propyl]-piperidin-1-yl}-propan-1-one]
1 to 10 | CCC(OC)(c1ccc(-c2ccc3cccnc3c2)cc1)C1CCN(C(=O)C2CC2)CC1 (stereo not shown) [Example 217, Cyclopropyl-{4-[1-methoxy-1-(4-quinolin-7-yl-phenyl)-propyl]-piperidin-1-yl}-methanone]
0.1 to 0.999 | CCC(=O)N1CCC(Cc2ccc(-c3cnc4ccccc4c3)cc2)C(=O)C1 (stereo not shown) [Example 220, 1-Propionyl-4-(4-quinolin-3-yl-benzyl)-piperidin-3-one]
1 to 10 | CCC(=O)N1CCC(F)(C(=O)c2ccc(-c3ccc4cccnc4c3C)cc2)CC1 [Example 222, 1-{4-Fluoro-4-[4-(8-methylquinolin-7-yl)-benzoyl]-piperidin-1-yl}-propan-1-one]
0.001 to 0.099 | CCC(=O)N1CCC(F)(C(O)c2ccc(-c3ccc4cccnc4c3C)cc2)CC1 (stereo not shown) [Example 223]
0.001 to 0.099 | O=C([C@H]1CCCO1)N1CC[C@@H](Cc2ccc(-c3cnc4ccccc4c3)cc2)[C@H](O)C1 [Example 224, [trans-3-Hydroxy-4-(4-quinolin-3-yl-benzyl)-piperidin-1-yl]-(R)-tetrahydrofuran-2-yl-methanone]
0.001 to 0.099 | CCC(=O)N1CCC(F)(C(OC)c2ccc(-c3ccc4cccnc4c3C)cc2)CC1 (stereo not shown) [Example 225, 1-(4-Fluoro-4-{methoxy-[4-(8-methyl-quinolin-7-yl)-phenyl]-methyl}-piperidin-1-yl)-propan-1-one]
